Counter-ions that a name gives are not always drawn. Like-named read-outs stand apart in the source and are kept apart here.

Data set [1] is described as follows: Rat oral administration test (plasma concentration via FXIa inhibitory activity). Format: in vivo. To be noted: fasted male Crj:CD(SD)IGS rats, single 3 mg/kg p.o., 20% wellsolve, read-out: rat plasma concentration after po administration Cmax at 3 mpk. How it is done: Each compound of the present invention in a solution of 20% wellsolve (celeste) was given to fasted male Crj:CD(SD)IGS rats as a single 3 mg/kg, p.o. dose by gavage. Blood samples were drawn from jugular vein into syringes containing 3.2% sodium citrate (the volume ratio of blood to anticoagulant=9:1) after oral administration at 0.5, 1, 2, 4 and 6 hours. Plasma was harvested by centrifugation and stored at −20° C. until measurement of plasma concentration.
To measure plasma concentrations of the compounds of the present invention, plasma samples were deproteinized with acetonitrile, followed by evaporation of the acetonitrile to dryness. The residual was then re-dissolved with DMSO and its FXIa inhibitory activity was measured by enzyme assay described above. Plasma concentrations of each compound of the present invention were quantitated by generating a standard curve of known compound concentration in rat plasma.

The target in another data set is Human Factor XIa (Homo sapiens (Human), UniProt P03951). Briefly: Factor XIa enzyme activity (chromogenic substrate S-2366). To be noted: read-out: In vitro FXIa inhibitory activity IC50. Format: biochemical. On the procedure: Inhibitory activities of compounds of the present invention against factor XIa, Xa, XIIa, IXa, VIIa, plasma kallikrein or thrombin were evaluated using appropriate purified proteases and synthetic substrates. The rate of hydrolysis of the chromogenic substrate by the relevant protease was continuously measured at 405 nm.
Inhibitory activity against each enzyme was calculated as % inhibition using the equation described below. % Inhibition=[[(rate without compound)−(rate with compound)](rate without compound)]×100%. Each half maximal inhibitory concentration (IC50) value was determined by plotting the concentration of compound of the invention against the % inhibition. (1-1) Factor XIa Enzyme Activity
Human Factor XIa (Haematologic Technologies Inc.) activity was measured at an enzyme concentration of 0.1 U/mL in 150 mM NaCl, 5 mM KCl, 1 mg/mL PEG6000, 50 mM HEPES-NaOH (pH7.4) with 300 μM S-2366 (pyroGlu-Pro-Arg-pNA, Chromogenix).

Data set [2] can be described thus: Pharmacokinetic (PK) study of the compound which has an ester group(s) in rat. The class given is in vivo. Conditions: plasma, po, fasted male Crj:CD(SD) rats, single 3 mg/kg p.o., analyte: administered ester compound, read-out: rat plasma concentration of ester compound after po administration Cmax at 3mpk. On the procedure: Each compound of the present invention in a solution of 20% wellsolve (celeste) was given to fasted male Crj:CD(SD) rats as a single 3 mg/kg, p.o. dose by gavage. Blood samples were drawn from jugular vein into syringes treated with heparin-diisopropyl fluorophosphate mixture (500:1) at 0.5, 1, 3, 7 hours after oral administration. Plasma was obtained by centrifugation and stored at −20° C. until measurement of plasma concentration.
To measure plasma concentrations of the compounds of the present invention, plasma samples were deproteinized with acetonitrile, followed by evaporation of the acetonitrile to dryness. Then the sample was reconstituted in the mobile phase and analyzed by LC/MS/MS. An analytical column (Shim-pack XR-ODS II, 2.0 mm×75 mm, 2.2 μm) and mobile phase (0.1% formic acid in water and 0.1% formic acid in acetonitrile, flow rate of 0.5 mL/min) were used. The system was used in multiple reaction monitoring (MRM) mode with positive ion detection.

The mark [3] stands for this setting: Table 2, comparison with comparative compounds.
[4] abbreviates: human Factor XIa 0.1 U/mL, 300 μM S-2366, pH7.4.

Chain of Human Factor XIa (P03951 388-625): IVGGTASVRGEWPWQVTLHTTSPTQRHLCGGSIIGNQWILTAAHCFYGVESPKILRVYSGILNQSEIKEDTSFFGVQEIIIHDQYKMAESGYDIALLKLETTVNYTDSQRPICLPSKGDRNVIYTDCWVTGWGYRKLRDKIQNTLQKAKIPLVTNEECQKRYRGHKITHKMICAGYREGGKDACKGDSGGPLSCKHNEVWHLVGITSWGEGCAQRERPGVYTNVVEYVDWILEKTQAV
Chain of Human Factor XIa (P03951 19-387 partner): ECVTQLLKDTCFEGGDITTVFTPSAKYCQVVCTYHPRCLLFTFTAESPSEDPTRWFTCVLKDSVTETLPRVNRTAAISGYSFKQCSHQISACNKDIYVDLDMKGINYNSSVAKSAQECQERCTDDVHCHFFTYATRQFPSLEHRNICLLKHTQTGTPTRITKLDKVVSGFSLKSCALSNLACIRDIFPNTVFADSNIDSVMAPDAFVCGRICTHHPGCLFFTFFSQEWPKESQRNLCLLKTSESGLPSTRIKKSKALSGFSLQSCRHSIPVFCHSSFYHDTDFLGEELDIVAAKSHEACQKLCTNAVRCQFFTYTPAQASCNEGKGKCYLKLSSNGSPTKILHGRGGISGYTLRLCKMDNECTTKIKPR

With `COC(=O)Nc1ccc(-c2[nH]c([C@H](Cc3ccccc3)NC(=O)CCc3cc(Cl)ccc3-n3cnnn3)nc2Cl)cc1` [Comp Ex 1, reference compound], the Cmax in data set [1] was 15 nM. In addition, on Human Factor XIa (setting [3]), the IC50 amounted to 3.6 nM. `COC(=O)Nc1ccc(-c2[nH]c([C@H](C)NC(=O)/C=C/c3cc(Cl)ccc3-n3cnnn3)nc2Cl)cc1` [Comp Ex 2, reference compound]: the Cmax in data set [1] was determined as 25 nM. On to `COC(=O)Nc1ccc(-c2[nH]c(CNC(=O)/C=C/c3cc(Cl)ccc3-n3cnnn3)nc2Cl)cc1` [Comp Ex 3, reference compound], for which the Cmax in data set [1] was 88 nM.

As to `COC(=O)Nc1ccc(-c2cnc(C3CCc4nc(-c5cc(Cl)ccc5-n5cnnn5)cc(=O)n43)[nH]2)cc1` (centres unmarked) [Example 41, methyl[4-(2-{2-[5-chloro-2-(1H-tetrazol-1-yl)phenyl]-4-oxo-4,6,7,8-tetrahydropyrrolo[1,2-a]pyrimidin-6-yl}-1H-imidazol-5-yl)phenyl]carbamate], in data set [1], the Cmax came to 2280 nM. Moreover, the half-inhibitory concentration (IC50) at Human Factor XIa (setting [3]) and on Human Factor XIa (setting [4]) was 6.5 nM each time. As to `COC(=O)Nc1ccc(-c2[nH]c(C3CCc4cc(-c5cc(Cl)ccc5-n5cnnn5)cc(=O)n43)nc2Cl)cc1` (centres unmarked) [Example 45, methyl[4-(4-chloro-2-{7-[5-chloro-2-(1H-tetrazol-1-yl)phenyl]-5-oxo-1,2,3,5-tetrahydro-3-indolizinyl}-1H-imidazol-5-yl)phenyl]carbamate], in data set [1], the Cmax came out at 1250 nM. For the same compound, the IC50 on Human Factor XIa (setting [3]) and at Human Factor XIa (setting [4]) was 15 nM each time.

For the compound `COC(=O)Nc1ccc(-c2[nH]c(Cn3ccc(-c4cc(Cl)ccc4-n4cnnn4)cc3=O)nc2Cl)cc1` [Example 57, methyl{4-[5-chloro-2-({4-[5-chloro-2-(1H-tetrazol-1-yl)phenyl]-2-oxo-1(2H)-pyridinyl}methyl)-1H-imidazol-4-yl]phenyl}carbamate], the Cmax in data set [1] amounted to 510 nM. In addition, the IC50 on Human Factor XIa (setting [3]) and at Human Factor XIa (setting [4]) was 2.4 nM throughout. As to `O=C(O)c1cc(-c2cnc([C@@H]3CCc4c(Cl)c(-c5cc(Cl)ccc5-n5cnnn5)cc(=O)n43)[nH]2)cs1` [Example 391, 4-(2-{(3S)-8-chloro-7-[5-chloro-2-(1H-tetrazol-1-yl)phenyl]-5-oxo-1,2,3,5-tetrahydro-3-indolizinyl}-1H-imidazol-5-yl)-2-thiophenecarboxylic acid trifluoroacetate], the IC50 on Human Factor XIa (setting [4]) is 1.1 nM. The same measure, in the same setting: the result for `O=C(O)c1cc(-c2cnc([C@@H]3CCc4nc(-c5cc(Cl)ccc5-n5cnnn5)cc(=O)n43)[nH]2)cs1` [Example 392, 4-(2-{(6S)-2-[5-chloro-2-(1H-tetrazol-1-yl)phenyl]-4-oxo-4,6,7,8-tetrahydropyrrolo[1,2-a]pyrimidin-6-yl}-1H-imidazol-5-yl)-2-thiophenecarboxylic acid hydrochloride] reads 2.1 nM; that for `O=C(O)c1ccc(-c2[nH]c([C@@H]3CCc4cc(-c5cc(Cl)ccc5-n5cnnn5)cc(=O)n43)nc2F)s1` [Example 399, 5-(2-{(3S)-7-[5-chloro-2-(1H-tetrazol-1-yl)phenyl]-5-oxo-1,2,3,5-tetrahydro-3-indolizinyl}-4-fluoro-1H-imidazol-5-yl)-2-thiophenecarboxylic acid trifluoroacetate], 1.1 nM; that for `Cc1cc(-c2cc(Cl)ccc2-n2cnnn2)cc(=O)n1Cc1ncc(-c2csc(C(=O)O)c2)[nH]1` [Example 400, 4-[2-({4-[5-chloro-2-(1H-tetrazol-1-yl)phenyl]-6-methyl-2-oxo-1(2H)-pyridinyl}methyl)-1H-imidazol-5-yl]-2-thiophenecarboxylic acid hydrochloride], 13 nM. `CCOC(=O)c1ccc(-c2cnc([C@@H]3CCc4cc(-c5cc(Cl)ccc5-n5cnnn5)cc(=O)n43)[nH]2)s1` [Example 401, ethyl 5-(2-{(3S)-7-[5-chloro-2-(1H-tetrazol-1-yl)phenyl]-5-oxo-1,2,3,5-tetrahydro-3-indolizinyl}-1H-imidazol-5-yl)-2-thiophenecarboxylate]: the Cmax in data set [2] amounted to 960 nM. As to `O=C(O)c1scc(-c2cnc([C@@H]3CCc4cc(-c5cc(Cl)ccc5-n5cnnn5)cc(=O)n43)[nH]2)c1F` [Example 834, 4-(2-{(3S)-7-[5-chloro-2-(1H-tetrazol-1-yl)phenyl]-5-oxo-1,2,3,5-tetrahydro-3-indolizinyl}-1H-imidazol-5-yl)-3-fluoro-2-thiophenecarboxylic acid], the IC50 on Human Factor XIa (setting [4]) turned out to be 1.6 nM. Same read-out and setting: to `O=C(O)c1cc(-c2nc(F)c(C3CCc4cc(-c5cc(Cl)ccc5-n5cnnn5)cc(=O)n43)[nH]2)cs1` (centres unmarked) [Example 848, 4-(5-{7-[5-chloro-2-(1H-tetrazol-1-yl)phenyl]-5-oxo-1,2,3,5-tetrahydro-3-indolizinyl}-4-fluoro-1H-imidazol-2-yl)-2-thiophenecarboxylic acid] belongs 1.7 nM.

These data come from patent publication US9732085B2, “Pyridinone and pyrimidinone derivatives as factor Xia” (ONO PHARMACEUTICAL CO., LTD., priority 2011, dated 2017).
